In PMC9266460, “KSK-74: Dual Histamine H3 and Sigma-2 Receptor Ligand with Anti-Obesity Potential” (International Journal of Molecular Sciences, 2022):
pIC50: −log10 of the molar value.

What was measured:
H3R [1] = biological target: T1, H3R (Homo sapiens, UniProt Q9Y5N1); assay: Intrinsic activity at H3R, range over both methods (LANCE Ultra cAMP and Aequoscreen); type: cell-based; conditions: read-out: IC50 at H3R, range depending on the assay method
T1 construct: the Aequoscreen line co-expresses apoaequorin
T1 sequence (Q9Y5N1 whole entry): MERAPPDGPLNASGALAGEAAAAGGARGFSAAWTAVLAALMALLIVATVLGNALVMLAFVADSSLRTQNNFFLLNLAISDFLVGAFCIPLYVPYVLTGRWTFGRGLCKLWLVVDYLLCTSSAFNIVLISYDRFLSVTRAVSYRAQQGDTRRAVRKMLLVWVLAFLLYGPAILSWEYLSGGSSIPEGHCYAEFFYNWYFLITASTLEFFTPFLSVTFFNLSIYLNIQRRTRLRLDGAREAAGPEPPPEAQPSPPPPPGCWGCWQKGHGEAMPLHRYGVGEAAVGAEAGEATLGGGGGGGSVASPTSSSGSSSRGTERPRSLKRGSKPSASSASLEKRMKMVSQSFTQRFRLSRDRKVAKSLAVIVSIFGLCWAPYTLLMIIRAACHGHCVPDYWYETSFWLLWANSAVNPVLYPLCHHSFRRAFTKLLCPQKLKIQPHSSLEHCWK
Experimental: The Aequoscreen technology uses recombinant cell lines with stable co-expression of apoaequorin and a GPCR as a system to detect activation of the receptor, following the addition of an agonist, via the measurement of light emission. For the measurement, cells (frozen, ready to use) were thawed and resuspended in 10 mL of assay buffer containing 5 μM of coelenterazine h. The cell suspension was then placed in a 10 mL Falcon tube, fixed on a rotating wheel, and incubated overnight at RT° in the dark. Cells were diluted with assay buffer at 5000 cells/20 µL. Agonistic ligands 2 × (50 μL/well), diluted in assay buffer, were prepared in 1/2 area white polystyrene plates, and 50 μL of cell suspension was dispersed on the ligands using the injector. The light emission was recorded for 20 s. Cells were incubated with antagonist for 15 min at RT°. Then, 50 µL of agonist (final concentration equal to 3 × EC80) was injected into the mixture of cells and antagonist and light emission was recorded for 20 s. The LANCE Ultra cAMP assay as a homogeneous time-resolved fluorescence resonance energy transfer (TR-FRET) immunoassay is designed to measure cAMP produced upon the modulation of adenylyl cyclase activity by GPCRs. […] For the measurement, cells (frozen, ready to use) were thawed and resuspended in 4 mL of HBSS 1×. […]

H3R [2] = biological target: T1, H3R; assay: Affinity at the H3R (literature values); type: binding; conditions: H3R Ki relative to sigma-2 Ki

| SMILES | pIC50 (H3R [1]) | affinity ratio H3/sigma-2 receptors (H3R [2]) |
| --- | --- | --- |
| CCC(=O)c1ccc(OCCCCCCN2CCN(c3ccncc3)CC2)cc1 [KSK-60] | 8.82 to 9.10 | – |
| CCC(=O)c1ccc(OCCCCCCCCN2CCN(c3ccncc3)CC2)cc1 [KSK-74] | 7.49 to 7.64 | 0.59 |
